Measurements taken from PubChem BioAssay (NCI).
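Five compound concentrations were applied to cells in 96-well plates for 48 hours; endpoints were derived by simple linear interpolation of the resulting dose-response curve. The concentration for full growth arrest is given as TGI.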

Key:
Test in all cases: growth of human tumour cells (NCI), 48 h
786-0 renal = test system: 786-0 renal
A549 NSCLC = test system: A549 NSCLC
CCRF-CEM leukemia = test system: CCRF-CEM leukemia
HL-60(TB) leukemia = test system: HL-60(TB) leukemia
HS 578T breast = test system: HS 578T breast
IGROV1 ovarian = test system: IGROV1 ovarian
K-562 leukemia = test system: K-562 leukemia
MCF7 breast = test system: MCF7 breast
MDA-MB-435 = test system: MDA-MB-435
SK-OV-3 ovarian = test system: SK-OV-3 ovarian
UACC-257 melanoma = test system: UACC-257 melanoma
NCI-H522 lung = test system: NCI-H522 lung

Compound	TGI (786-0 renal)	TGI (A549 NSCLC)	TGI (CCRF-CEM leukemia)	TGI (HL-60(TB) leukemia)	TGI (HS 578T breast)	TGI (IGROV1 ovarian)	TGI (K-562 leukemia)	TGI (MCF7 breast)	TGI (MDA-MB-435)	TGI (SK-OV-3 ovarian)	TGI (UACC-257 melanoma)	TGI (NCI-H522 lung)
C=CCCC1(CC(Sc2ccccc2)P(=O)(c2ccccc2)c2ccccc2)OCCO1 (stereo not drawn)	> 10 µM	> 10 µM	> 10 µM	> 10 µM	> 10 µM	> 10 µM	> 10 µM	> 10 µM	> 10 µM	> 10 µM	> 10 µM	–
N#Cc1c(-c2ccccc2)[nH]c2ccc(Cl)cc2c1=O	> 100 µM	> 100 µM	> 100 µM	> 100 µM	> 100 µM	> 100 µM	> 100 µM	> 100 µM	> 100 µM	> 100 µM	> 100 µM	> 100 µM
CCOC(=O)C1C(=O)CC1(C)C (stereo not drawn)	> 10 µM	> 10 µM	> 10 µM	> 10 µM	> 10 µM	> 10 µM	> 10 µM	> 10 µM	> 10 µM	> 10 µM	> 10 µM	–
C(/C=C/Nc1ccc(Oc2ccccc2)cc1)=Nc1ccc(Oc2ccccc2)cc1	32.2 µM	42 µM	37 µM	49.7 µM	43.4 µM	33 µM	55.9 µM	31.1 µM	31.7 µM	–	32 µM	37.7 µM
CC(=O)OC1C(Oc2c(C)cc3c(c2O)[C@@H](C)CC[C@@H]3[C@@H](C)CCC=C(C)C)OCC(O)C1O (stereo partly drawn)	32.8 µM	30.2 µM	66.9 µM	41.7 µM	47.4 µM	37.9 µM	39.5 µM	42.5 µM	28.1 µM	38.1 µM	35.6 µM	36.4 µM
CC(CC[C@@]1(C)C(=O)CCC2O[C@]21C)[C@H]1C[C@@H](c2ccoc2)OC1=O (stereo partly drawn)	63.1 µM	> 100 µM	61.3 µM	47.6 µM	> 100 µM	> 100 µM	51 µM	> 100 µM	> 100 µM	> 100 µM	> 100 µM	22.2 µM
Cc1ccc2c(c1)CC1(Cc3ccccc3C1=O)C2=O (stereo not drawn)	> 100 µM	> 100 µM	> 100 µM	> 100 µM	> 100 µM	> 100 µM	> 100 µM	> 100 µM	> 100 µM	> 100 µM	> 100 µM	> 100 µM
CCOC(C)O[C@H]1C(=O)OCC1(C)C (stereo partly drawn)	> 100 µM	> 100 µM	> 100 µM	> 100 µM	> 100 µM	> 100 µM	> 100 µM	> 100 µM	> 100 µM	> 100 µM	> 100 µM	–
Cc1ccc(S(=O)(=O)N/N=C2/CCCOC2)cc1	> 100 µM	> 100 µM	> 100 µM	> 100 µM	> 100 µM	> 100 µM	> 100 µM	> 100 µM	> 100 µM	> 100 µM	> 100 µM	> 100 µM
COC(=O)Nc1nc2ccc(S(=O)(=O)SC)cc2[nH]1	16.9 µM	> 100 µM	61.4 µM	8.11 µM	> 100 µM	15.3 µM	> 100 µM	27 µM	12.2 µM	43 µM	45.5 µM	> 100 µM
NNC(=S)N/N=C(/C(=O)Nc1ccc(Cl)c(Cl)c1)C(C1OC(=O)c2ccccc21)[N+](=O)[O-] (stereo not drawn)	> 100 µM	> 100 µM	> 100 µM	> 100 µM	> 100 µM	> 100 µM	> 100 µM	> 100 µM	> 100 µM	> 100 µM	> 100 µM	> 100 µM
C=C(C)[C@H]1Cc2c(ccc3c2O[C@@H]2COc4cc(OC)c(OC)cc4[C@@H]2C3=O)O1	> 86.2 µM	> 100 µM	71.1 µM	0.381 µM	0.488 µM	> 100 µM	> 72.1 µM	> 84.2 µM	0.0642 µM	48.8 µM	36.7 µM	0.404 µM
Cc1ccc([N+](=O)[O-])c2c(NCCC[N+](C)(C)[O-])c3ccccc3nc12	6.72 µM	6.29 µM	> 30.8 µM	34.5 µM	21.7 µM	> 23.9 µM	> 38.3 µM	7.66 µM	5.15 µM	> 100 µM	6.11 µM	–
Clc1ccc(-c2cc3nc4ccccc4nc3o2)cc1	> 100 µM	> 100 µM	> 100 µM	> 100 µM	> 100 µM	> 100 µM	> 100 µM	> 100 µM	> 100 µM	> 100 µM	> 100 µM	–
CCN1CCN(c2nc3ccccc3c3c2CCOc2ccccc2-3)CC1	> 55.1 µM	> 69.3 µM	> 83.6 µM	> 77.3 µM	> 59.2 µM	> 58.3 µM	> 100 µM	> 56.5 µM	> 62.7 µM	> 70.7 µM	34.8 µM	> 62.3 µM
O=C1NC2O[C@H](CNC(=O)c3cc(Br)c[nH]3)CC2(O)N1 (mixture of isomers)	> 100 µM	> 100 µM	–	> 100 µM	> 100 µM	> 100 µM	> 100 µM	> 100 µM	> 100 µM	> 100 µM	> 100 µM	> 100 µM
COc1cc(Br)cc2cc(-c3cn4c(n3)sc3ccccc34)c(=O)oc12	> 75 µM	> 75 µM	> 75 µM	36.2 µM	39.9 µM	34.9 µM	46.4 µM	> 75 µM	> 75 µM	> 75 µM	> 75 µM	28.7 µM
O=C(c1cccs1)N1CCc2ccccc2C1	> 100 µM	> 100 µM	> 100 µM	76 µM	> 100 µM	> 100 µM	> 100 µM	> 100 µM	> 100 µM	> 100 µM	> 100 µM	> 100 µM
CCc1cc(Cc2cc(CC)c(NC(=O)C(=O)CC(=O)c3sc(-c4cccnc4)nc3C)c(CC)c2)cc(CC)c1NC(=O)C(=O)CC(=O)c1sc(-c2cccnc2)nc1C	> 100 µM	> 100 µM	> 100 µM	> 100 µM	> 100 µM	> 100 µM	> 100 µM	> 100 µM	> 100 µM	> 100 µM	> 100 µM	> 100 µM
COc1cc(-c2nc3ccccn3c2/N=C/c2cc(Br)cc(Br)c2O)ccc1O	35.5 µM	> 100 µM	45.6 µM	46.4 µM	83.8 µM	49.9 µM	> 100 µM	53.8 µM	72 µM	59 µM	75.2 µM	58.2 µM
CCO/C=N\C1=C(C#N)SC2=N/C(=C\c3ccc(OC)cc3)C(=O)N21	> 100 µM	> 100 µM	> 100 µM	> 100 µM	> 100 µM	> 100 µM	> 100 µM	> 100 µM	> 100 µM	> 100 µM	> 100 µM	> 100 µM
O=C(c1ccco1)N(C(=S)OCCOc1ccccc1)c1ccccc1	38.3 µM	90.2 µM	46.5 µM	47.3 µM	> 100 µM	36.9 µM	83.4 µM	42.8 µM	29.7 µM	55.3 µM	37.4 µM	40.5 µM
COC(=O)c1cc2c(cc1CC(Cc1ccc3c(c1)CCCC3)C(=O)OC)CCCC2 (stereo not drawn)	> 100 µM	> 100 µM	> 100 µM	29.7 µM	> 100 µM	> 100 µM	> 100 µM	> 100 µM	> 100 µM	> 100 µM	> 100 µM	> 100 µM
O=C(NCP(=O)(c1ccccc1)c1ccccc1)OCc1ccccc1	> 100 µM	> 100 µM	> 100 µM	> 100 µM	> 100 µM	> 100 µM	> 100 µM	> 100 µM	> 100 µM	> 100 µM	–	> 100 µM
CCOC(=O)c1cc2c3ccn(Cc4ccccc4)c3c3c(C)[nH]oc3c2n1	> 100 µM	> 100 µM	> 100 µM	> 100 µM	> 100 µM	> 100 µM	> 100 µM	> 100 µM	> 100 µM	–	> 100 µM	> 100 µM
Nc1ccc(Cc2c(N)[nH]c(=O)[nH]c2=O)cc1	> 100 µM	> 100 µM	> 100 µM	> 100 µM	> 100 µM	–	> 100 µM	> 100 µM	> 100 µM	> 100 µM	> 100 µM	> 100 µM
O=c1cc(N2CCCC2)[nH]c(=O)n1-c1cccc(Cl)c1	> 100 µM	–	> 100 µM	> 100 µM	> 100 µM	> 100 µM	> 100 µM	> 100 µM	> 100 µM	> 100 µM	> 100 µM	> 100 µM
CC(=O)Oc1ccc2cc(-c3ccccc3OC(C)=O)c(=O)oc2c1	> 100 µM	> 100 µM	60.6 µM	24.4 µM	> 100 µM	–	> 100 µM	> 100 µM	> 100 µM	–	> 100 µM	17.9 µM
